{
  "source": "paper PMC3189943",
  "about": "“Catalytic Properties of the Isolated Diaphorase Fragment of the NAD^+-Reducing [NiFe]-Hydrogenase from Ralstonia eutropha” (PLoS ONE, 2011)",
  "key": {"[1]": {"biological_target": "T1, HoxFU (diaphorase moiety of the NAD+-reducing soluble [NiFe]-hydrogenase, SH) (Cupriavidus necator, UniProt P22317)", "T1 construct": "gene hoxF; HoxFU heterodimer without HoxHY and HoxI; N-terminal Strep-tag II on HoxF kept; plasmid pGE553, homologous overproduction in R. eutropha HF424; Strep-Tactin plus size exclusion; apparent 110 kDa; HoxF 67 kDa, HoxU 27 and 23 kDa (both with original termini, unidentified modification); FMN and Fe-S clusters; with NAD-reducing hydrogenase HoxS subunit gamma", "T1 sequence (P22317 whole entry)": "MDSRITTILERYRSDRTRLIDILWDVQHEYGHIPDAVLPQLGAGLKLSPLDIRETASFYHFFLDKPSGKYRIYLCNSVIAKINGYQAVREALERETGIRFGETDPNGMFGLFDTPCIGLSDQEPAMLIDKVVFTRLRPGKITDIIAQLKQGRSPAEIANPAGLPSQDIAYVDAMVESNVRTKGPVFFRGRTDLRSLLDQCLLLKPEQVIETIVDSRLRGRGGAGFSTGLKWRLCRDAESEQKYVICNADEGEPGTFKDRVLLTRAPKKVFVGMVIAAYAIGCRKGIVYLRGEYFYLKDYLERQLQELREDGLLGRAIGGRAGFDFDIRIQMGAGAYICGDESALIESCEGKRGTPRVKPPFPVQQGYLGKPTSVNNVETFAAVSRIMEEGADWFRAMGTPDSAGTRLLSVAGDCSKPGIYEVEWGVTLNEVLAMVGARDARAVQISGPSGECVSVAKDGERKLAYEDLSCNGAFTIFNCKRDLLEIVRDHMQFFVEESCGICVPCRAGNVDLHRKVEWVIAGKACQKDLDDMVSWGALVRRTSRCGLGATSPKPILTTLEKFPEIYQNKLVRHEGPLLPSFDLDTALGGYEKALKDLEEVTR", "T1 sequence (P22318 2-234 partner)": "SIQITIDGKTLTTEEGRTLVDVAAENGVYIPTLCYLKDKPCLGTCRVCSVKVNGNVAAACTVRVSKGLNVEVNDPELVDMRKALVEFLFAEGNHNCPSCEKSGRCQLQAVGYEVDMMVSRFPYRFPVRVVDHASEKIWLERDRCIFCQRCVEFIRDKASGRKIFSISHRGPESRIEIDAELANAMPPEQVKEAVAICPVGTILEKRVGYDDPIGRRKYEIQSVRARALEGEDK", "experiment": "protein film electrochemistry, inhibition of NAD+ reduction current", "format": "biochemical", "settings": "-412 mV, 0.14 mM NAD+, 50 mM Tris-HCl pH 8.0; enzyme adsorbed on graphite electrode"}, "[2]": {"biological_target": "T1, HoxFU (diaphorase moiety of the NAD+-reducing soluble [NiFe]-hydrogenase, SH)", "experiment": "protein film electrochemistry, Dixon plot", "format": "biochemical"}},
  "note": "Where two headings read alike, the source gives them in different places.",
  "data": [
    {"smiles": "Nc1ncnc2c1ncn2[C@@H]1O[C@H](COP(=O)(O)OP(=O)(O)OC[C@H]2OC(O)[C@H](O)[C@@H]2O)[C@@H](O)[C@H]1O", "note": "(stereo partly drawn) [ADP-ribose]", "values": [
      {"measurement": "protein film electrochemistry, inhibition of NAD+ reduction current", "setting": "[1]", "result": "effect of injections of ADP-ribose on NAD^+ reduction by HoxFU, confirming that ADP-ribose is an inhibitor"}
    ]},
    {"smiles": "NC(=O)C1=CN([C@@H]2O[C@H](COP(=O)(O)OP(=O)(O)OC[C@H]3O[C@@H](n4cnc5c(N)ncnc54)[C@H](O)[C@@H]3O)[C@@H](O)[C@H]2O)C=CC1", "note": "[NADH]", "values": [
      {"measurement": "Ki", "setting": "[2]; read-out: K I(NADH)", "result": "200 to 300", "unit": "µM"}
    ]},
    {"smiles": "NC(=O)c1ccc[n+]([C@@H]2O[C@H](COP(=O)(O)OP(=O)(O)OC[C@H]3O[C@@H](n4cnc5c(N)ncnc54)[C@H](O)[C@@H]3O)[C@@H](O)[C@H]2O)c1", "note": "[NAD^+]", "values": [
      {"measurement": "Ki", "setting": "[2]; read-out: K I(NAD+)", "result": "100 to 300", "unit": "µM"}
    ]}
  ]
}
